Reference: patent US20140249218A1, “ADMINISTRATION OF INGENOL MEBUTATE” (LEO Laboratories Limited, priority 2013, published 2014)

What was measured:
[1] = format: physicochemical; settings: room temperature
Experimental: For the experiment, a slurry mixture of forms A, X and Y in cyclohexane was stirred for about 48 hours at room temperature. After about 24 hours, the complete sample was transformed into form A (see FIG. 17).
A polymorphic crystalline form of the compound of Formula 1 was characterized and identified as form A″ The stability of form A at room temperature was confirmed by the slurry experiments at room temperature.

[2] = Stress milling (mortar and pestle); format: physicochemical; settings: manual grinding about 2, 5 and 10 mins
Experimental: Crystalline ingenol mebutate is subjected to stress milling to investigate its physico-chemical stability. In the study, crystalline ingenol mebutate is manually ground using a mortar and pestle for durations of about 2, about 5 and about 10 mins.
Crystalline ingenol mebutate was subjected to stress milling (manually using a mortar and pestle) for durations of about 2, about 5 and about 10 mins.

[3] = Skin permeation of [3H]-PEP005, human split-thickness skin; format: in vitro ADME; settings: gel ca 0.05% w/w
Experimental: (§1) The rate and extent of absorption of [^3H]-ingenol mebutate over a 24 h exposure period following topical application of the gel to Wistar (WI) rat, Sprague Dawley (SD) rat, Göttingen mini-pig and human split-thickness skin was also assessed.

[4] = Skin permeation of [3H]-PEP005, mini-pig split-thickness skin; format: in vitro ADME, Göttingen mini-pig
Experimental: as §1
The maximum hourly flux was 0.44, 0.80, 2.09, and 6.12 ng equiv./cm^2/h for human, mini-pig, SD and WI rat skin, respectively. […] The flux profile for mini-pig was dissimilar to the other species/strains. […] The other three species/strains had similar flux profiles with lag times of ca 1, 2 and 3 h for the human, SD and WI rat skin, respectively. This was followed by steady state flux from 4-24 h, 6-24 h and 8-24 h, respectively. Steady state flux was 0.39, 2.01 and 5.87 ng equiv./cm^2/h for the human, SD and WI rat skin, respectively. […] These differences with the mini-pig group compared to the other three skin groups may have been attributed to the preparation of the split-thickness skin. Due to the hair follicle depth in mini-pig skin, split-thickness skin was prepared at a depth of ca […] compared to ca […] for the other skin groups. Therefore, the thicker layer of dermis for the mini-pig skin may have acted as a reservoir for [3H]-PEP005 prior to partitioning into the receptor fluid.

[5] = Skin permeation of [3H]-PEP005, Sprague Dawley rat split-thickness skin; format: in vitro ADME, Sprague Dawley (SD) rat
Experimental: as §1

[6] = Skin permeation of [3H]-PEP005, Wistar rat split-thickness skin; format: in vitro ADME, Wistar (WI) rat
Experimental: as §1

[7] = Conversion of solvate forms upon heating; format: physicochemical
[8] = system: squamous cell carcinoma and melanoma tumor; assay: Mouse xenograft squamous cell carcinoma and melanoma tumor models, topical; format: in vivo
skin = assay: UV irradiation studies (photoirritation, photoallergy); format: in vivo; settings: ingenol mebutate 0.01%, single and multiple applications
Source text: Studies have been conducted to assess the effects of UV irradiation on the skin following single and multiple applications of ingenol mebutate, 0.01%. […] However, excessive exposure to sunlight (including sunlamps and tanning beds) should be avoided or minimized during use of TRADEMARK Gel due to the nature of the disease.

rats = assay: Teratogenicity study, intravenous route, rats; format: in vivo, rat; settings: 5 μg/kg/day = 30 μg/m^2/day
Experimental: (§2) Teratogenicity studies with ingenol mebutate were performed by the intravenous route in rats and rabbits.
(§3) In rats, ingenol mebutate was not associated with fetal developmental effects at doses up to 5 μg/kg/day (30 μg/m^2/day).

rabbits = assay: Teratogenicity study, intravenous route, rabbits; format: in vivo, rabbit; settings: rabbits
Experimental: as §2, §3
(§4) The fetal NOAEL was 1 μg/kg/day (12 μg/m^2/day).

[9] = Teratogenicity study, intravenous route, rabbits; format: in vivo, rabbit; settings: female, rabbit, in vivo, 12 μg/m^2/day, read-out: fetal NOAEL
Experimental: as §2, §3, §4

mouse lymphoma = assay: Mouse lymphoma assay; format: cell-based
Experimental: (§5) Carcinogenic evaluations of ingenol mebutate have not been conducted. Ingenol mebutate was not mutagenic in an in vitro Ames test, mouse lymphoma assay, and in vivo rat micronucleus test. Ingenol mebutate was positive in the Syrian hamster embryo (SHE) cell transformation assay at concentrations≧0.1 μg/mL.

skin cancer cells = settings: via rapid mitochondrial disruption and primary necrosis; normal cells less sensitive; cited from earlier work
human endothelial cells = assay: PKC dependent activation of endothelial cells, neutrophil adhesion in vitro; format: cell-based; settings: e.g., 10 to 100 ng/mL
Source text: (§6) Ingenol mebutate is a pleiotropic effector that exerts a direct cytotoxic effect on tumor cells and modulates Protein Kinase C (PKC) isoforms.

[10] = system: Syrian hamster embryo (SHE) cell; assay: Syrian hamster embryo (SHE) cell transformation assay; format: cell-based
Experimental: as §5

rat = assay: In vivo rat micronucleus test
Experimental: as §5

In vitro Ames test = format: cell-based
Experimental: as §5

tumor cells = assay: Direct cytotoxic effect at high concentrations; format: cell-based; settings: e.g., 100 μg/mL
Source text: as §6

receptors and enzymes = assay: Off-target activity in various in vitro assays
mouse skin = assay: Application to mouse skin in vivo, inflammatory mediators; settings: subclinical concentrations
[11] = system: human cytochrome P450 isoforms; assay: In vitro cytochrome P450 inhibition/induction; format: in vitro ADME
tumors = assay: Mouse xenograft models, intratumoral injection; format: in vivo
[12] = system: isolated human keratinocytes; assay: Exposure of isolated keratinocytes in vitro; format: cell-based; settings: subclinical concentrations
[13] = Mini-Pig skin, gel ca 0.05% w/w, NO = not observed
[14] = mini-pig skin vs human skin, % applied dose
[15] = mini-pig skin, gel ca 0.05% w/w
[16] = SD rat skin vs human skin, % applied dose
[17] = Sprague Dawley Rat skin, gel ca 0.05% w/w
[18] = WI rat skin vs human skin, % applied dose
[19] = Wistar Rat skin, gel ca 0.05% w/w

## C/C=C(/C)C(=O)O[C@H]1C(C)=C[C@]23C(=O)[C@@H](C=C(CO)[C@@H](O)[C@]12O)[C@H]1[C@@H](C[C@H]3C)C1(C)C [form A, ingenol mebutate]
[1]
  relative stability of forms A, X and Y: most stable form at room temperature
[2]
  physico-chemical stability on milling: remained unaltered

## C/C=C(/C)C(=O)O[C@H]1C(C)=C[C@]23C(=O)[C@@H](C=C(CO)[C@@H](O)[C@]12O)[C@H]1C(C[C@H]3C)C1(C)C (stereo in doubt) [[^3H]-ingenol mebutate]
[3]
  Lag Time: ~1 h
  Period of Steady State Flux: 4 to 24 h
  Steady State Flux: 0.39 ng equiv./cm^2/h
  maximum hourly flux: 0.44 ng equiv./cm^2/h
  time post dose at which maximum flux was achieved: 16 h
[3]; 24 h exposure
  Unabsorbed Dose: 101.09 % Applied Dose
[4]; Mini-Pig skin, gel ca 0.05% w/w, 24 h exposure
  Unabsorbed Dose: 93.35 % Applied Dose
[4]; [13]
  Lag Time: no apparent lag time
  Steady State Flux: no apparent lag time or steady state flux observed
[4]; [14]
  dermal delivery compared to human skin, fold greater: ~7.9 fold
  total absorption compared to human skin, fold less: ~1.4 fold
[4]; [15]
  maximum hourly flux: 0.80 ng equiv./cm^2/h
  time post dose at which maximum flux was achieved: 1 h
[5]; SD rat skin vs human skin
  steady state flux compared to human skin, fold greater: ~5.2 fold
[5]; [16]
  dermal delivery compared to human skin, fold greater: ~5.1 fold
  total absorption compared to human skin, fold greater: ~4.9 fold
[5]; SD rat skin, gel ca 0.05% w/w
  maximum hourly flux: 2.09 ng equiv./cm^2/h
[5]; [17]
  Lag Time: ~2 h
  Period of Steady State Flux: 6 to 24 h
  Steady State Flux: 2.01 ng equiv./cm^2/h
[5]; Sprague Dawley Rat skin, gel ca 0.05% w/w, 24 h exposure
  Unabsorbed Dose: 94.40 % Applied Dose
[6]; WI rat skin vs human skin
  steady state flux compared to human skin, fold greater: ~15.1 fold
[6]; [18]
  dermal delivery compared to human skin, fold greater: ~9.2 fold
  total absorption compared to human skin, fold greater: ~13.8 fold
[6]; WI rat skin, gel ca 0.05% w/w
  maximum hourly flux: 6.12 ng equiv./cm^2/h
  time post dose at which maximum flux was achieved: 16 h
[6]; [19]
  Lag Time: ~3 h
  Period of Steady State Flux: 8 to 24 h
  Steady State Flux: 5.87 ng equiv./cm^2/h
[6]; Wistar Rat skin, gel ca 0.05% w/w, 24 h exposure
  Unabsorbed Dose: 90.31 % Applied Dose

## C/C=C(/C)C(=O)O[C@H]1C(C)=C[C@]23C(=O)[C@@H](C=C(CO)[C@@H](O)[C@]12O)[C@H]1[C@@H](C[C@H]3C)C1(C)C [form X, ingenol mebutate]
[1]; slurry of forms A, X and Y in c-hexane
  time to conversion to form A in slurry: about 24 hours
[7]
  behaviour upon heating: converted into form A upon heating

## C/C=C(/C)C(=O)O[C@H]1C(C)=C[C@]23C(=O)[C@@H](C=C(CO)[C@@H](O)[C@]12O)[C@H]1[C@@H](C[C@H]3C)C1(C)C [ingenol mebutate, (1 aR,2S,5R,5aS,6S,8aS,9R,10aR)-5,5a-dihydroxy-4-(hydroxymethyl)-1,1,7,9-tetramethyl-11-oxo-1a,2,5,5a,6,9,10,10a-octahydro-1H2,8a-methanocyclopenta[a]cyclopropa[e]cyclodecen-6-yl(2Z)-2-methylbut-2-enoate]
[8]
  effect on tumors: removes tumors and prevents tumor recurrence
skin
  photoirritation or photoallergy effects: did not demonstrate any potential for photoirritation or photoallergy effects
[3]
  Lag Time: 1 h
  Period of Steady State Flux: 4.24 h
  Steady State Flux: 0.39 ng equiv./cm^2/h
rats
  doses not associated with fetal developmental effects: up to 5 μg/kg/day
rabbits; 1 μg/kg/day = 12 μg/m^2/day
  doses at which maternal toxicity (increased breathing) was observed: ≥ 1 µg/kg/day
rabbits; 2 μg/kg/day = 24 μg/m^2/day
  doses with slight increase in incidence of incompletely ossified cervical vertebral arches: ≥ 2 µg/kg/day
rabbits; 4 μg/kg/day (48 μg/m^2/day), marginal, not statistically significant
  embryo-fetal findings: slight increase in embryonic deaths, an increase in jugular fusion to the maxilla and a variation in the origin of arteries arising from the aortic arch
[9]
  NOAEL: 0.001 mg/kg/day
Mouse lymphoma
  mutagenicity: not mutagenic
[5]; [17]
  Lag Time: 2 h
  Period of Steady State Flux: 6.24 h
  Steady State Flux: 2.01 ng equiv./cm^2/h
Skin cancer cells
  toxicity for skin cancer cells: highly toxic
Human endothelial cells
  effect on endothelial cells at subclinical concentrations: stimulates PKC dependent activation of human endothelial cells to support neutrophil adhesion
[10]; Syrian hamster, Syrian hamster embryo (SHE) cells
  concentrations positive in SHE cell transformation assay: ≥ 100 ng/mL
[10]; concentrations≧0.1 μg/mL
  cell transformation result: positive
[6]; [19]
  Lag Time: 3 h
  Period of Steady State Flux: 8.24 h
  Steady State Flux: 5.87 ng equiv./cm^2/h
rat
  mutagenicity: not mutagenic
In vitro Ames test
  mutagenicity: not mutagenic
Tumor cells
  effect on cells at high concentrations: induces mitochondrial swelling and loss of cell membrane integrity leading to cell death
Receptors and enzymes
  off-target activity: did not inhibit or stimulate receptors and enzymes
Mouse skin
  release of inflammatory mediators in mouse skin: induced the release of inflammatory mediators IL-8/MIP-2 and TNF-α resulting in neutrophil recruitment and activation
[11]
  inhibition or induction of cytochrome P450 isoforms: does not inhibit or induce human cytochrome P450 isoforms
tumors
  immune response after intratumoral injection: stimulated a tumor-specific CD8+T cell response with anti-tumor activity against distant secondary tumors
[12]
  effect on keratinocytes: cytokine release and specific PKC-mediated neutrophil activation
